Test: xn = mol fraction of the nth substance listed
Settings: 100 kPa; for viscosity: 298.1 K

CCCC[N+]1(C)CCCC1.O=S(=O)([N-]S(=O)(=O)C(F)(F)F)C(F)(F)F + CC1COC(=O)O1
Settings | electrical conductivity [S/m]
296.9 K, x1 = 0.4 | 0.781
297.1 K, x1 = 0.6 | 0.543
297.1 K, x1 = 0.9 | 0.347
297.3 K, x1 = 0.2 | 1
299.8 K, x1 = 0.9 | 0.366
299.9 K, x1 = 0.2 | 1.02
299.9 K, x1 = 0.6 | 0.571
302.5 K, x1 = 0.2 | 1.04
302.5 K, x1 = 0.4 | 0.835
302.6 K, x1 = 0.6 | 0.593
302.6 K, x1 = 0.8 | 0.444
302.6 K, x1 = 0.9 | 0.387
305.3 K, x1 = 0.4 | 0.864
305.4 K, x1 = 0.2 | 1.07
305.4 K, x1 = 0.6 | 0.615
305.4 K, x1 = 0.8 | 0.471
305.4 K, x1 = 0.9 | 0.417
307.9 K, x1 = 0.4 | 0.882
307.9 K, x1 = 0.8 | 0.501
308.1 K, x1 = 0.9 | 0.437
308.2 K, x1 = 0.6 | 0.639
308.4 K, x1 = 0.2 | 1.11
310.9 K, x1 = 0.4 | 0.901
310.9 K, x1 = 0.9 | 0.461
311.1 K, x1 = 0.2 | 1.13
311.1 K, x1 = 0.6 | 0.666
313.5 K, x1 = 0.9 | 0.487
313.7 K, x1 = 0.6 | 0.683
316.3 K, x1 = 0.4 | 0.963
316.3 K, x1 = 0.8 | 0.578
316.5 K, x1 = 0.6 | 0.704
316.5 K, x1 = 0.9 | 0.508
319 K, x1 = 0.4 | 0.988
319.2 K, x1 = 0.2 | 1.19
319.2 K, x1 = 0.8 | 0.603
319.2 K, x1 = 0.9 | 0.529
321.9 K, x1 = 0.4 | 1.01
322.1 K, x1 = 0.2 | 1.2
322.1 K, x1 = 0.8 | 0.628
322.3 K, x1 = 0.6 | 0.746
324.6 K, x1 = 0.2 | 1.22
324.7 K, x1 = 0.8 | 0.652
324.9 K, x1 = 0.4 | 1.02
324.9 K, x1 = 0.6 | 0.771
324.9 K, x1 = 0.9 | 0.59
327.2 K, x1 = 0.9 | 0.615
327.4 K, x1 = 0.2 | 1.24
327.4 K, x1 = 0.4 | 1.05
327.4 K, x1 = 0.8 | 0.677
330.1 K, x1 = 0.4 | 1.07
330.3 K, x1 = 0.6 | 0.811
330.4 K, x1 = 0.8 | 0.701
332.9 K, x1 = 0.8 | 0.721
333 K, x1 = 0.2 | 1.27
333 K, x1 = 0.4 | 1.09
333 K, x1 = 0.9 | 0.661
333.2 K, x1 = 0.6 | 0.828
335.5 K, x1 = 0.9 | 0.683
335.7 K, x1 = 0.2 | 1.3
335.9 K, x1 = 0.6 | 0.842
335.9 K, x1 = 0.8 | 0.74
336 K, x1 = 0.4 | 1.12
338.5 K, x1 = 0.4 | 1.13
338.5 K, x1 = 0.9 | 0.706
338.7 K, x1 = 0.6 | 0.864
341.4 K, x1 = 0.4 | 1.16
341.4 K, x1 = 0.9 | 0.734
341.6 K, x1 = 0.2 | 1.32
343.8 K, x1 = 0.8 | 0.804
344 K, x1 = 0.2 | 1.33
344 K, x1 = 0.4 | 1.16
344.2 K, x1 = 0.9 | 0.752
344.4 K, x1 = 0.6 | 0.908
347 K, x1 = 0.2 | 1.34
347 K, x1 = 0.6 | 0.935
347 K, x1 = 0.8 | 0.835
347 K, x1 = 0.9 | 0.781
349.5 K, x1 = 0.8 | 0.849
349.9 K, x1 = 0.2 | 1.36
349.9 K, x1 = 0.9 | 0.808
350.1 K, x1 = 0.6 | 0.951

Settings | viscosity [mPa·s]
x1 = 0.2 | 5.5
x1 = 0.4 | 13.7
x1 = 0.6 | 29.8
x1 = 0.8 | 41.3
x1 = 0.9 | 48.1

CC1COC(=O)O1 (stereo unspecified) + CCCC[n+]1ccn(C)c1.O=S(=O)([N-]S(=O)(=O)C(F)(F)F)C(F)(F)F
Settings | viscosity [mPa·s]
x2 = 0.2 | 7.5
x2 = 0.4 | 11.9
x2 = 0.6 | 20
x2 = 0.8 | 31.4
x2 = 0.9 | 35.4

— a compilation of properties of binary mixtures (doi:10.1016/j.molliq.2017.09.070)
